The record followed here is patent US10954217B2 (priority 2016, dated 2021).

SMILES strings stand for the structures. pKi: −log10 of the molar value.

Targets include 5-HT2C (Homo sapiens (Human), UniProt P28335); H2 (Homo sapiens (Human), UniProt P25021); 5-HT2B (Homo sapiens (Human), UniProt P41595); Alpha2B (Homo sapiens (Human), UniProt P18089); Alpha2A (Homo sapiens (Human), UniProt P08913); Alpha2C (Homo sapiens (Human), UniProt P18825); M4 (Homo sapiens (Human), UniProt P08173); D3 (Homo sapiens (Human), UniProt P35462); M3 (Homo sapiens (Human), UniProt P20309); 5-HT2A (Homo sapiens (Human), UniProt P28223); Alpha1B (Homo sapiens (Human), UniProt P35368); M5 (Homo sapiens (Human), UniProt P08912); M2 (Homo sapiens (Human), UniProt P08172); KOR (Homo sapiens (Human), UniProt P41145); Alpha1D (Homo sapiens (Human), UniProt P25100); H1 (Homo sapiens (Human), UniProt P35367); D4 (Homo sapiens (Human), UniProt P21917).

Holding throughout (experiment): biochemical

What is called pKi is −log10 of the Ki, conventionally taken in molar units. High values mean a small Ki, low ones a large Ki. With `Clc1cc(Cl)cc(CN2Cc3ccc(N4CCOCC4)cc3C2)c1`, the pKi at 5-HT2C is 5.86; at H2 it was 5.93; on 5-HT2B, 6.15; at Alpha2B, 5.17; at Alpha2A, 5.63; on Alpha2C it was 5.34.

As for `C=CCN1CCN(c2ccc3c(c2)CN(S(=O)(=O)c2cc(Cl)cc(Cl)c2)C3)CC1`, the pKi was 5.72 at M4; 6.66 at D3; 6.15 at M3; 6.29 on 5-HT2A; 5.86 at Alpha1B; 5.89 on M5. For the same molecule, the pKi on Alpha2C is 6.77; at M2, 5.38.

`CN1CCN(c2ccc3c(c2)CN(S(=O)(=O)c2cc(Cl)cc(Cl)c2)C3)CC1`: the pKi at M4 is 5.45; at D3, 6.22; at 5-HT2C, 6.08; on M3 it was 5.71; on KOR, 5.07; at 5-HT2A, 6.28. Further, the negative-log Ki (pKi) is 5.19 at Alpha1D, 6.31 at H1, 5.68 on M5 and 5.41 at M2.

For `Clc1cc(Cl)cc(CN2CCc3ccc(N4CCOCC4)cc3C2)c1`, the pKi on D3 is 5.49; on D4 it was 6.01; at H1, 5.88.

As to `CN1CCN(c2ccc3c(c2)CN(S(=O)(=O)c2cc(Cl)cc(Cl)c2)CC3)CC1`, the negative-log Ki (pKi) is 5.64 at M4; 6.57 at D3; 5.97 on 5-HT2C; 5.69 on M3; 5.59 at KOR; 6.69 at 5-HT2B. Further, the results for the pKi on H1, on M5 and at M2 were 5.32, 5.63 and 5.78, respectively.

Regarding `C=CCN1CCN(c2ccc3c(c2)CN(S(=O)(=O)c2cc(Cl)cc(Cl)c2)CC3)CC1`, the pKi on D3 was 6.97; on M3 it was 5.71; on KOR, 5.66; at 5-HT2B, 6.40; at Alpha1D, 5.46; on H1, 6.62. This molecule had a negative logarithm of the Ki (pKi) at M5 of 5.45.
